How the values were obtained:
[1] = system: estrogen responsive element/promoter/luciferase reporter gene; assay: ERE Luciferase Assay in T47D-KBluc cells; type: cell-based, human; conditions: Homo sapiens, 24 hours, luciferase activity, read-out: Target Engagement IC50
Method: 1. ERE Luciferase Assay for Compounds in Table 5.
T47D-KBluc cells (ATCC® #CRL_2865, T47D human breast cancer cells stably transfected with estrogen responsive element/promoter/luciferase reporter gene) were seeded into 96-well white opaque plates in RPMI growth medium supplemented with 10% fetal bovine serum (FBS) and allowed to adhere overnight in a 37° C. humidified incubator. The following day, cells were treated with PROTACs in a 12-point concentration curve (top final concentration of 300 nM with subsequent concentrations being 3-fold less with 2 pM being the lowest concentration in the assay). Each PROTAC was tested independently in two experiments on 96-well plates. After 24 hours, media was removed and lysis buffer was added to the wells. Following lysis, Bright-Glo™ Luciferase Assay Substrate (Promega, Madison WI) was added and the luciferase activity was measured using a Cytation 3 plate reader (BioTek™, Winooski, VT). Each compound was assayed in duplicate and the activity was calculated as IC50 using GraphPad Prism software (San Diego, CA).

[2] = biological target: T1, Estrogen Receptor-Alpha (ERα) (Homo sapiens, UniProt P03372); assay: Estrogen Receptor-Alpha (ERα) degradation assay in MCF-7 cells (western blot / In-Cell Western); type: cell-based; conditions: for Dmax: MCF7, read-out: ER Dmax; for DC50: read-out: ER DC50
T1 construct: endogenous in cells; host or cells: MCF-7 (MCF7) cells
T1 sequence (P03372 1-595): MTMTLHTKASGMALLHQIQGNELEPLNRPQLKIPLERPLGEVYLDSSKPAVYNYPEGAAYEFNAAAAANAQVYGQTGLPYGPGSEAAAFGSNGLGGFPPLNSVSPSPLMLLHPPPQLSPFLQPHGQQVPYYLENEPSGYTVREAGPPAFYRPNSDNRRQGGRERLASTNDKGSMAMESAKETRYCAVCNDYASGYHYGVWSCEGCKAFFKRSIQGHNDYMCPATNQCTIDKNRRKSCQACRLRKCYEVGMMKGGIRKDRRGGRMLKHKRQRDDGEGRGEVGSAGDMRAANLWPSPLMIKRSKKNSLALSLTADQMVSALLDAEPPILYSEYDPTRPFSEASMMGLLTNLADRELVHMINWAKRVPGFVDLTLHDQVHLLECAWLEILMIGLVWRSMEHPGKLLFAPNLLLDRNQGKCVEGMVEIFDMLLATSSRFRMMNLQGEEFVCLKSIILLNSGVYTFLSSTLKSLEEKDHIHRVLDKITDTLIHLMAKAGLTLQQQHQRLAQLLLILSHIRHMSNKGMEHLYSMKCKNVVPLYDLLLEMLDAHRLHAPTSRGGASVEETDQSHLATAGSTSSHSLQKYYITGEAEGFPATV
Method: 2. Estrogen Receptor-Alpha (ERα) Degradation Assay in MCF-7 Cells Using Western Blot Method for Table 5.
The exemplary novel ERα degraders were assessed for their activity in degrading ERα in MCF-7 cells via western blot. The assay was carried out in the presence of 10% FBS or high percentage of human or mouse serum. Protocols of the western blot assay are described below.
MCF7 cells were grown in DMEM/F12 with 10% FBS and seeded at 24,000 cells per well in 100 μl into 96-well clear tissue culture plates. The following day, the cells were treated with PROTACs in a […] concentration curve with 100 nM being the top concentration and serial dilutions to make the other concentrations (30 nM, 10 nM, 3 nM, 1 nM, and 0.3 nM). At all concentrations, 0.01% DMSO is the final concentration in the well. The following day, the plates are aspirated, washed with 50 μl of cold PBS. The cells are lysed with 50 μl/well 4° C. Cell Lysis Buffer (Catalog #9803; Cell Signaling Technology, Danvers, MA) (20 mM Tris-HCL (pH 7.5), 150 mM NaCl, 1 mM Na2EDTA, 1 mM EGTA, 1% Triton, 2.5 mM sodium pyrophosphate, 1 mM B-glycerophosphate, 1 mM sodium vanadate, 1 ug/ml leupeptin). Lysates were clarified at 16,000×g for 10 minutes, and 2 μg of protein was subjected to SDS-PAGE analysis and followed by immunoblotting according to standard protocols. The antibodies used were ERα (Cell Signaling Technologies Catalog #8644), and Tubulin (Sigma Catalog #T9026; St. Louis, MO). Detection reagents were Clarity Western ECL substrate (Bio-Rad Catalog #170-5060; Hercules, CA).
Alternatively, MCF7 cells were grown in DMEM/F12 with 10% FBS and seeded at 24,000 cells per well in 500 μl in 24-well clear tissue culture plates. The following day, the cells were treated with PROTACs in a 5-point concentration curve (100 nM, 33 nM, 11 nM, 3.7 nM, and 1.2 nM) in the presence of 0.01% DMSO. After 72 hours, the wells are aspirated and washed with 500 μl of PBS. The cells are lysed with 100 μl/well 4° C. Cell Lysis Buffer (Catalog #9803; Cell Signaling Technology, Danvers, MA) (20 mM Tris-HCL (pH 7.5), 150 mM NaCl, 1 mM Na2EDTA, 1 mM EGTA, 1% Triton, 2.5 mM sodium pyrophosphate, 1 mM B-glycerophosphate, 1 mM sodium vanadate, 1 ug/ml leupeptin). Lysates were clarified at 16,000×g for 10 minutes, and 2 μg of protein was subjected to SDS-PAGE analysis and followed by immunoblotting according to standard protocols. The antibodies used were ERα (Cell Signaling Technologies Catalog #8644), and Tubulin (Sigma Catalog #T9026; St. Louis, MO). Detection reagents were Clarity Western ECL substrate (Bio-Rad Catalog #170-5060; Hercules, CA).
3. Estrogen Receptor-Alpha (ERα) Degradation Assay Using In-Cell Western™ Assay for Table 5.
Degradation of ERα by claimed compounds were determined in MCF7 cells using an In-Cell Western™ assay. Briefly, MCF7 cells were plated in 96-well plates (2000 cells per well in 100 μl media) and incubated at 37° C. under an atmosphere of 5% CO2 in a humidified incubator overnight. One-hundred (100) μl of media containing test compound (at 2× concentration) was added to the appropriate wells to provide 11 serially decreasing concentrations (top final concentration, 1 μM then 3-fold less for the next 10 concentrations); a vehicle control (DMSO) was also added for each compound. For each experiment, all compounds were assayed in duplicate plates. Cells were then incubated for 3 or 5 days in the above-mentioned environment. The assay was terminated by removal of media, a single wash with ice-cold PBS and the addition of 50 μl paraformaldehyde (PFA: 4% in PBS). After 15 minutes in PFA at room temperature, the cells were permeabilized in Tris-phosphate-buffered saline with Tween (0.1%) (TBST) supplemented with Triton X-100 (0.5%) for 15 minutes. Cells were then blocked in BSA (TBST with BSA, 3%) for one hour. […]

IC50 [1] [nM]	Dmax [2] [%]	DC50 [2] [nM]	Compound
0.7	≥ 75	< 1	COc1cc(N2CCN(CC(=O)C3CC(Oc4ccc([C@@H]5c6ccc(O)cc6CC[C@@H]5c5ccccc5)cc4)C3)CC2)cc2c1C(=O)N(C1CCC(=O)NC1=O)C2 (stereo partly drawn) [compound 26, 3-[5-[4-[2-[3-[4-[(1R,2S)-6-hydroxy-2-phenyl-tetralin-1-yl]phenoxy]cyclobutyl]-2-oxo-ethyl]piperazin-1-yl]-7-methoxy-1-oxo-isoindolin-2-yl]piperidine-2,6-dione]
0.7	≥ 75	1 to 10	COc1cc(N2CCN(CCC3CCN(c4ccc([C@@H]5c6ccc(O)cc6CC[C@@H]5c5ccccc5)cc4F)CC3)CC2)cc2c1C(=O)N(C1CCC(=O)NC1=O)C2 (stereo partly drawn) [compound 24, 3-[5-[4-[2-[1-[2-fluoro-4-[(1R,2S)-6-hydroxy-2-phenyl-tetralin-1-yl]phenyl]-4-piperidyl]ethyl]piperazin-1-yl]-7-methoxy-1-oxo-isoindolin-2-yl]piperidine-2,6-dione]
0.5	< 50		O=C1CCC(n2nc3cc(N4CCN(CCCCCOc5ccc([C@@H]6c7ccc(O)cc7CC[C@@H]6c6ccccc6)cc5)CC4)ccn3c2=O)C(=O)N1 (stereo partly drawn) [compound 25, 3-{7-[4-(5-{4-[(1R,2S)-6-hydroxy-2-phenyl-1,2,3,4-tetrahydronaphthalen-1-yl]phenoxy}pentyl)piperazin-1-yl]-3-oxo-2H,3H-[1,2,4]triazolo[4,3-a]pyridin-2-yl}piperidine-2,6-dione]
	< 50		COc1cc(N2CCN(CC3CCN(c4ccc([C@H]5c6ccc(O)cc6CC[C@H]5c5ccccc5)cc4)CC3)CC2)cc2c1C(=O)N(C1CCC(=O)NC1=O)C2 (some centres unmarked) [compound 31]

Continued, molecule first:

Compound	IC50 [1] [nM]	Dmax [2] [%]	DC50 [2] [nM]
O=C1CCC(N2Cc3cc(N4CCN(CCCCCOc5ccc([C@@H]6c7ccc(O)cc7CC[C@@H]6c6ccccc6)cc5)CC4)cc(OC(F)F)c3C2=O)C(=O)N1 (stereo partly drawn) [compound 20, 3-[7-(difluoromethoxy)-5-[4-[5-[4-[(1R,2S)-6-hydroxy-2-phenyl-tetralin-1-yl]phenoxy]pentyl]piperazin-1-yl]-1-oxo-isoindolin-2-yl]piperidine-2,6-dione]	1.2	50 to 75	1 to 10
COCCOCCOc1c(N2CCN(CC3CCN(c4ccc([C@@H]5c6ccc(O)cc6CC[C@@H]5c5ccccc5)cc4)CC3)CC2)ccc2c1CN(C1CCC(=O)NC1=O)C2=O (stereo partly drawn) [compound 6, 3-(5-{4-[(1-{4-[(1R,2S)-6-hydroxy-2-phenyl-1,2,3,4-tetrahydronaphthalen-l-yl]phenyl}piperidin-4-yl)methyl]piperazin-1-yl}-4-[2-(2-methoxyethoxy)ethoxy]-1-oxo-2,3-dihydro-1H-isoindol-2-yl)piperidine-2,6-dione]	2.18	< 50	
COc1cc(N2CCN(CCC3CCN(c4ccc([C@@H]5c6ccc(O)cc6CC[C@@H]5c5ccccc5)cc4)CC3)CC2)cc2c1C(=O)N(C1CCC(=O)NC1=O)C2 (stereo partly drawn) [compound 10, 3-[5-[4-[2-[1-[4-[(1R,2S)-6-hydroxy-2-phenyl-tetralin-1-yl]phenyl]-4-piperidyl]ethyl]piperazin-1-yl]-7-methoxy-1-oxo-isoindolin-2-yl]piperidine-2,6-dione]	0.86	≥ 75	1 to 10
O=C1CCC(N2Cc3cc(N4CCN(CCC5CCN(c6ccc([C@@H]7c8ccc(O)cc8CC[C@@H]7c7ccccc7)cc6)CC5)CC4)cc(OC(F)F)c3C2=O)C(=O)N1 (stereo partly drawn) [compound 22, 3-[7-(difluoromethoxy)-5-[4-[2-[1-[4-[(1R,2S)-6-hydroxy-2-phenyl-tetralin-1-yl]phenyl]-4-piperidyl]ethyl]piperazin-1-yl]-1-oxo-isoindolin-2-yl]piperidine-2,6-dione]	4.4	≥ 75	1 to 10

— patent US12239711B2, “Cereblon ligands and bifunctional compounds comprising the same” (Arvinas Operations, Inc., priority 2014, dated 2025)
